Reference: patent US12509467B2 (Hoffmann-La Roche Inc., priority 2020, dated 2025)

Target: T1, human cGAS (residues 161-522) (Homo sapiens, UniProt Q8N884)
T1 construct: Recombinantly expressed purified human cGAS (residues 161-522) was used at 25 nM; made in house
Assay: cGAS Activity Assay—Malachite Green
Type: biochemical
Conditions: not given
Description: Compounds were tested for cGAS inhibition in a coupled enzymatic assay based on Phosphate detection by Malachite Green. Final assay conditions were 20 mM TRIS pH 7.5 (Applichem), 5 mM MgCl2 (Sigma) and 0.01% BSA (Sigma) supplemented with 80 μM ATP (Sigma), 80 μM GTP (Sigma) and 100 nM Interferon Stimulating DNA (ISD) (Microsynth).
1 μL of DMSO dilution series was transferred to 32.3 μL reaction buffer, mixed by pipetting up/down, spun for 1 minute at 3000 rpm and was visually inspected for precipitation. 5 μL of 3-fold enzyme stock solution were transferred to an empty 384-well Black/Clear Flat Bottom Polystyrene NBS (Corning) rows 3-24. Rows 1-2 were filled with assay buffer. Plates were spun 10 seconds at 1000 rpm (164×g). 5 μL of compound intermediate dilution was added and mixed by pipetting up/down to rows 3-24. Rows 1-2 were filled with 3.1% DMSO assay buffer. Plates were spun 10 seconds at 1000 rpm (164×g). 5 μL 3-fold Nucleotide/DNA mix was added to all wells to start the reaction. Plates were spun 10 seconds at 1000 rpm (164×g) and incubated for 4 hour at room temperature (RT) in the dark. 5 μL 4 U/mL PPase (Sigma) were added to all wells. Plates spun 10 seconds at 1000 rpm (164×g). 10 μL BioMol green Solution (Enzo Life Sciences) was added to all wells. Plates spun 10 seconds at 1000 rpm (164×g) and incubated 30 minutes at RT in the dark. Absorbance data was collected 620 nm on an EnVision Multilable Reader (Perkin Elmer) and the following measurement settings were used: excitation filter photometric was 620 nm; excitation from the top; measurement height was 1 mm; number of flashes was 30; number of flashes integrated was 1.
All plates are checked for abnormalities and outliers in the Blank Control (no protein, row 1) and the Neutral Control (no compound, row 2) are excluded using the 3*SD rule.
Table 5 provides IC50 values (μM) for cGAS inhibition obtained for particular examples of the present invention as measured by the above-described assay.

T1 sequence (Q8N884 161-522): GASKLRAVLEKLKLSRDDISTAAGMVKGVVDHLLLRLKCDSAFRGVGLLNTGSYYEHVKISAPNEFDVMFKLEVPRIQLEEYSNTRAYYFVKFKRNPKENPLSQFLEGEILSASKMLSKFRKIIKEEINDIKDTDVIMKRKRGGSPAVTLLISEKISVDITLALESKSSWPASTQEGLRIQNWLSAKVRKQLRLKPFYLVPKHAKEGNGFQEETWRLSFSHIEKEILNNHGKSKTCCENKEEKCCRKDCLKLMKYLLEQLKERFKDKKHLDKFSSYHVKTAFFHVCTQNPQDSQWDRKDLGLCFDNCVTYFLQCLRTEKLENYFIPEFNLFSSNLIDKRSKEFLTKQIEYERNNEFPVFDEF

IC50 [µM]	Structure (SMILES)
0.765	CCCc1cc(=O)n2nc(NCc3ccc(-c4ccccc4)cc3Cl)nc2[nH]1 [Example 4]
0.128	CCCCc1cc(=O)n2nc(NCc3cc(N4CC5(COC5)C4)ncc3Cl)nc2[nH]1 [Example 97, 5-Butyl-2-[[5-chloro-2-(2-oxa-6-azaspiro[3.3]heptan-6-yl)-4-pyridyl]methylamino]-4H-[1,2,4]triazolo[1,5-a]pyrimidin-7-one]
0.869	CCCc1cc(=S)n2nc(NCc3cc(-c4ccn(C)n4)ccc3Cl)nc2[nH]1 [Example 40, 2-[[2-chloro-5-(1-methylpyrazol-3-yl)phenyl]methylamino]-5-propyl-4H-[1,2,4]triazolo[1,5-a]-pyrimidine-7-thione]
1.59	CCCc1cc(=O)n2nc(NCc3ccc(C(C)C)cc3)nc2[nH]1 [Example 55, 2-[(4-propan-2-ylphenyl)meth-ylamino]-5-propyl-4H-[1,2,4]-triazolo[1,5-a]pyrimidin-7-one]
2.7	CC(C)c1ccc(CNc2nc3[nH]c(Cc4ccccc4)cc(=O)n3n2)cc1 [Example 73, 5-benzyl-2-[(4-isopropylphen-yl)methylamino]-4H-[1,2,4]-triazolo[1,5-a]pyrimidin-7-one]
5.22	CCCc1cc(=O)n2nc(NCc3cnc(N4CCN(C)CC4)cc3Cl)nc2[nH]1 [Example 100]
2.9	CCCc1cc(=O)n2nc(OCc3cc(-c4cnn(C)c4)ccc3Cl)nc2[nH]1 [Example 91, 2-[[2-Chloro-5-(1-methylpyrazol-4-yl)phenyl]methoxyl]-5-propyl-4H-[1,2,4]triazolo[1,5-a]pyrimidin-7-one]
0.287	CCCc1cc(=O)n2nc(NCc3cc(-c4ccncc4)ccc3Cl)nc2[nH]1 [Example 25, 2-[[2-chloro-5-(4-pyridyl)phen-yl]methylamino]-5-propyl-4H-[1,2,4]triazolo[1,5-a]pyrimidin-7-one]
2.74	CC(C)c1cc(=O)n2nc(NCc3ccc(Cl)cc3Cl)nc2[nH]1 [Example 61, 2-[(2,4-dichlorophenyl)methyl-amino]-5-isopropyl-4H-[1,2,4]-triazolo[1,5-a]pyrimidin-7-one]

Same assay, conditions: cGAS inhibition; 25 nM cGAS, 80 μM ATP, 80 μM GTP, 100 nM ISD, 4 hour at RT, Malachite Green phosphate detection; read-out: IC50 cGAS

IC50 [µM]	Structure (SMILES)
4.66	CCCCc1cc(=O)n2nc(NCc3cc(C4CC4)on3)nc2[nH]1 [Example 49, 5-butyl-2-[(5-cyclopropylisox-azol-3-yl)methylamino]-4H-[1,2,4]triazolo[1,5-a]pyrimidin-7-one]
2.11	Cc1cc(=O)n2nc(NCc3cc(-c4ccn(C)n4)ccc3Cl)nc2[nH]1 [Example 34, 2-[[2-chloro-5-(1-methylpyrazol-3-yl)phenyl]methylamino]-5-methyl-4H-[1,2,4]triazolo[1,5-a]-pyrimidin-7-one]
0.263	Cn1ccc(-c2ccc(Cl)c(CNc3nc4[nH]c(CCCC(F)F)cc(=O)n4n3)c2)n1 [Example 50, 2-[[2-chloro-5-(1-methylpyrazol-3-yl)phenyl]methylamino]-5-(4,4-difluorobutyl)-4H-[1,2,4]-triazolo[1,5-a]pyrimidin-7-one]
3.78	O=c1cc(C2CC2)[nH]c2nc(NCc3ccc(Cl)cc3Cl)nn12 [Example 59, 5-cyclopropyl-2-[(2,4-dichloro-phenyl)methylamino]-4H-[1,2,4]triazolo[1,5-a]pyrimidin-7-one]
2.56	CCCc1cc(=O)n2nc(NCc3cccc(-c4ccccc4)c3)nc2[nH]1 [Example 16, 2-[(3-phenylphenyl)methyl-amino]-5-propyl-4H-[1,2,4]-triazolo[1,5-a]pyrimidin-7-one]
1.92	O=c1cc(CNc2ccccc2F)[nH]c2nc(NCc3ccccc3Cl)nn12 [Example 80, 2-[(2-Chlorophenyl)methylamino]-5-1(2-fluoroanilino)methyl1-4H-11,2,41triazolo[1,5-a]pyrimidin-7-one]
9.51	CCCc1cc(=O)n2nc(NCc3ccc(OC)cc3Cl)nc2[nH]1 [Example 69, 2-[(2-chloro-4-methoxyphen-yl)methylamino]-5-propyl-4H-[1,2,4]triazolo[1,5-a]pyrimidin-7-one]
0.162	CCCCc1cc(=O)n2nc(NCc3cc(-c4ccn(C)n4)ccc3Cl)nc2[nH]1 [Example 32, 5-butyl-2-[[2-chloro-5-(1-methyl-pyrazol-3-yl)phenyl]methyl-amino]-4H-[1,2,4]triazolo[1,5-a]pyrimidin-7-one]
0.663	Cn1ccc(-c2ccc(Cl)c(CNc3nc4[nH]c(C(F)(F)F)cc(=O)n4n3)c2)n1 [Example 19, 2-[[2-chloro-5-(1-methylpyrazol-3-yl)phenyl]methylamino]-5-(trifluoromethyl)-4H-[1,2,4]-triazolo[1,5-a]pyrimidin-7-one]
0.078	O=c1cc(Cc2ccccc2)[nH]c2nc(NCc3cc(-c4ccncc4)ccc3Cl)nn12 [Example 31, 5-benzyl-2-[[2-chloro-5-(4-pyridyl)phenyl]methylamino]-4H-[1,2,4]triazolo[1,5-a]-pyrimidin-7-one]
3.59	O=c1cc(CC2CC2)[nH]c2nc(NCc3ccc(Cl)cc3Cl)nn12 [Example 63, 5-(cyclopropylmethyl)-2-[(2,4-dichlorophenyl)methylamino]-4H-[1,2,4]triazolo[1,5-a]-pyrimidin-7-one]
4.08	CCCc1cc(=O)n2nc(NCc3ccc(OC4CC4)cc3)nc2[nH]1 [Example 10, 2-[[4-(cyclopropoxy)phenyl]-methylamino]-5-propyl-4H-[1,2,4]triazolo[1,5-a]pyrimidin-7-one]
2.77	CCCc1cc(=O)n2nc(NCc3cc(-c4cccnn4)ccc3Cl)nc2[nH]1 [Example 85, 2-[(2-Chloro-5-pyridazin-3-yl-phenyl)methylamino]-5-propyl-4H-[1,2,4]triazolo[1,5-a]pyrimidin-7-one]
0.816	CCc1cc(=O)n2nc(NCc3cc(-c4ccn(C)n4)ccc3Cl)nc2[nH]1 [Example 33, 2-[[2-chloro-5-(1-methylpyrazol-3-yl)phenyl]methylamino]-5-ethyl-4H-[1,2,4]triazolo[1,5-a]pyrimidin-7-one]
1.04	CCCc1cc(=O)n2nc(NCc3cc(N4CCOCC4)ccc3Cl)nc2[nH]1 [Example 39, 2-[(2-chloro-5-morpholinophen-yl)methylamino]-5-propyl-4H-[1,2,4]triazolo[1,5-a]pyrimidin-7-one]
1.72	CCCc1cc(=O)n2nc(NCc3ccc(Cl)cc3Cl)nc2[nH]1 [Example 58, 2-[(2,4-Dichlorophenyl)methylamino]-5-propyl-4H-[1,2,4]triazolo[1,5-a]pyrimidin-7-one]
4.01	CCCc1cc(=O)n2nc(NCc3ccc(-n4cccn4)cc3)nc2[nH]1 [Example 5, 5-propyl-2-[(4-pyrazol-1-yl-phenyl)methylamino]-4H-[1,2,4]-triazolo[1,5-a]pyrimidin-7-one]
0.701	CCCc1cc(=O)n2nc(NCc3ccc(N4CCOCC4)cc3Cl)nc2[nH]1 [Example 41, 2-[(2-chloro-4-morpholino-phenyl)methylamino]-5-propyl-4H-[1,2,4]triazolo[1,5-a]-pyrimidin-7-one]
0.392	CCCc1cc(=O)n2nc(NCc3cc(-c4cncnc4)ccc3Cl)nc2[nH]1 [Example 36, 2-[(2-chloro-5-pyrimidin-5-yl-phenyl)methylamino]-5-propyl-4H-[1,2,4]triazolo[1,5-a]-pyrimidin-7-one]
0.602	CCCc1cc(=O)n2nc(NCc3cc(-c4ccn(C)n4)ccc3F)nc2[nH]1 [Example 12, 2-[[2-fluoro-5-(1-methylpyrazol-3-yl)phenyl]methylamino]-5-propyl-4H-[1,2,4]triazolo[1,5-a]pyrimidin-7-one]
0.484	CCCc1cc(=O)n2nc(NCc3cc(-n4cnc(C)c4)ccc3Cl)nc2[nH]1 [Example 88, 2-[[2-Chloro-5-(4-methylimidazol-1-yl)phenyl]methylamino]-5-propyl-4H-[1,24]triazolo[1,5-a]pyrimidin-7-one]
4.44	O=c1cc(CC(F)(F)F)[nH]c2nc(NCc3ccc(Cl)cc3Cl)nn12 [Example 68, 2-[(2,4-dichlorophenyl)meth-ylamino]-5-(2,2,2-trifluoro-ethyl)-4H-[1,2,4]triazolo[1,5-a]pyrimidin-7-one]
0.492	CCCc1cc(=O)n2nc(NCc3cc(Nc4nccs4)ccc3Cl)nc2[nH]1 [Example 89, 2-[[2-chloro-5-(thiazol-2-ylamino)phenyl]methylamino]-5-propyl-4H-[1,2,4]triazolo[1,5-a]pyrimidin-7-one]
3.53	CCCCc1cc(=O)n2nc(NCc3cnn(-c4cnccn4)c3)nc2[nH]1 [Example 45, 5-butyl-2-[(1-pyrazin-2-ylpyr-azol-4-yl)methylamino]-4H-[1,2,4]triazolo[1,5-a]pyrimidin-7-one]
